Each structure is given as a SMILES string. “And” between values parts separate entries of the source, which are not always exact repeats. Equal values may be shown once.

The IC50 is the point on the concentration scale where inhibition reaches its midpoint.

The target of the assay is Nonstructural protein 3 (Zika virus, UniProt A0A024AXB9). The experiment in a line: Functional biochemical assay to identify treatments for viral infectious disease that targets Zika NS2B-NS3 protease. Utilizing a direct enzyme activity measurement method, reading the fluorescence intensity is used to characterize the relative potency of inhibitors as IC50. Set-up: species or system PRVABC59.
Chain of Nonstructural protein 3 (A0A024AXB9 whole entry): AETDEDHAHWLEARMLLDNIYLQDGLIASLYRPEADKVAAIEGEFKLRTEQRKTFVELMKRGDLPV
Consider `Cc1ncsc1C(=O)N[C@H](C(=O)Nc1cccc(CN)c1)c1ccc(OCc2ccccc2)cc1`, for which the IC50 was more than 99.5 µM.

As to `COc1ccc(F)cc1-c1ccc(S(=O)(=O)Nc2ccc(Cl)cc2C(=O)O)cc1`, 28.8 µM corresponded to half-maximal inhibition (IC50).

In the case of `CCn1c(=O)c(N2C[C@H]3CCC[C@H]2C3)nc2ccccc21`, the IC50 is more than 99.5 µM.

As for `NCc1cccc(NC(=O)[C@H](NC(=O)C2CCC2)c2ccc(OCc3ccccc3)cc2)c1`, the IC50 is more than 99.5 µM.

`NCc1cccc(NC(=O)C[C@H](NC(=O)OCc2ccccc2)c2ccc(OC(F)(F)F)cc2)c1`: the IC50 is 33.9 µM and 39.5 µM.

For `N[C@]12CCC[C@](C(=O)NCc3ccc4c(c3)CCNCC4)(CC1)C2`, the IC50 was more than 99.5 µM.

As to `O=C(O)c1cc(F)c(F)c(F)c1NS(=O)(=O)c1ccc(Oc2ccccc2Cl)cc1`, half-maximal inhibition (IC50) was put at 88.8 µM.

In the case of `NCc1cccc(NC(=O)C[C@H](NC(=O)OCc2ccccc2)c2ccc(Cl)c(Br)c2)c1`, the IC50 is 20.7 µM and 18.8 µM and 15.9 µM and 15.5 µM.

For the compound `O=C(Cn1ccnc(N2CC[C@H](CO)C2)c1=O)NCc1nccs1`, the IC50 is more than 99.5 µM.

In turn, `NCc1cccc(NC(=O)[C@H](NC(=O)OCc2ccccc2)c2ccc(Br)c(F)c2)c1` returned an IC50 of 64.4 µM.

For the compound `CCn1ccnc(N2C[C@H](c3c[nH]c4ccccc34)[C@H](N3C(=O)c4ccccc4C3=O)C2)c1=O`, the IC50 is more than 99.5 µM.

`CC(C)Oc1ccccc1C(=O)N[C@H](C(=O)Nc1cccc(CN)c1)c1ccc(OCc2ccccc2)cc1` registered an IC50 of 34.4 µM.

On to `NCc1cccc(NC(=O)[C@H](NC(=O)OCc2ccccc2)c2ccc(Br)cc2F)c1`, for which the IC50 stood at 72 µM.

As for `NCc1cccc(CNC(=O)c2cc(Cl)cc(NC(=O)OCc3ccccc3)c2)c1`, the concentration for half-maximal inhibition (IC50) stood at 51.3 µM.

The compound `NCc1cccc(NC(=O)[C@H](NC(=O)OCc2ccccc2)c2cccc(-c3ccc(S(N)(=O)=O)cc3)c2)c1` showed an IC50 of 84.1 µM.

Regarding `CCn1c(=O)c(N2C[C@H]3C[C@@]3(C(F)F)C2)nc2ccccc21`, the IC50 was more than 99.5 µM.

The compound `Cn1cc(-c2cccc([C@H](NC(=O)OCc3ccccc3)C(=O)Nc3cccc(CN)c3)c2)cn1` yielded a half-maximal inhibitory concentration (IC50) of more than 99.5 µM.

`COCc1cc(Cl)ccc1NS(=O)(=O)c1ccc(Oc2ccccc2Cl)cc1` yielded an IC50 of more than 99.5 µM.

Consider `CCN(C(=O)Cn1ccnc(N2CC[C@H](CO)C2)c1=O)C(C)C`, for which the IC50 is more than 99.5 µM.

In the case of `NCc1cccc(NC(=O)[C@H]2[C@H]3CCCC[C@H]3[C@@H]2NC(=O)OCc2ccccc2)c1`, it took 94.4 µM to reach half-maximal inhibition (IC50).

With `CCn1c(=O)c(N2CC[C@H](c3nccn3C)C2)nc2ccccc21`, the half-maximal inhibitory concentration (IC50) was more than 99.5 µM.

`Cc1nccn1-c1ccc(NS(=O)(=O)c2ccc(Cl)cc2C(=O)O)cc1F` came in with an IC50 of more than 99.5 µM.

As to `CCOc1cccc(-c2ccc(S(=O)(=O)Nc3ccc(Cl)cc3C(=O)O)cc2)c1`, the IC50 is 14.7 µM and 13.8 µM.

`NCc1cccc(NC(=O)C[C@H](NC(=O)OCc2ccccc2)c2ccc(Cl)c(F)c2)c1` came in with an IC50 of 71.4 µM.

Compound `Cn1cnc2c1CN(Cc1ccc3c(c1)CCNCC3)CC2` returned an IC50 of more than 99.5 µM.

Turning to `NCC1(NC(=O)[C@H](NC(=O)OCc2ccccc2)c2ccc(OCc3ccccc3)cc2)CCCCC1`, the IC50 turned out to be 58.5 µM.

On to `Cn1ccnc1C(=O)N[C@H](C(=O)Nc1cccc(CN)c1)c1ccc(OCc2ccccc2)cc1`, for which the IC50 was more than 99.5 µM.

`CCn1c(=O)c(N2C[C@H]3C[C@H]2CS(=O)(=O)C3)nc2ccccc21`: the IC50 is more than 99.5 µM.

`CS(=O)(=O)c1ccc(-c2ccc(S(=O)(=O)Nc3ccc(Cl)cc3C(=O)O)cc2)cc1` came in with an IC50 of 77.5 µM.

Take `NCc1cccc(NC(=O)[C@H](NC(=O)OCc2ccccc2)c2cccc(-c3cncc(F)c3)c2)c1`: the IC50 was more than 99.5 µM.

`CS(=O)(=O)c1ccc(-c2cccc([C@H](NC(=O)OCc3ccccc3)C(=O)Nc3cccc(CN)c3)c2)cc1`: the IC50 is 70.5 µM.

`CCC(C)(C)C(=O)N[C@H](C(=O)Nc1cccc(CN)c1)c1ccc(OCc2ccccc2)cc1` returned a 50% inhibitory concentration (IC50) of more than 99.5 µM.

For `CCn1c(=O)c(N2CC[C@H](N3CCCC3=O)C2)nc2ccccc21`, the IC50 was more than 99.5 µM.

In turn, `CCn1c(=O)c(N2CC[C@H](c3cnccn3)C2)nc2ccccc21` yielded an IC50 of more than 99.5 µM.

As for `O=C(O)c1cc(Cl)ccc1NS(=O)(=O)c1ccc(-c2cccnc2)cc1`, the IC50 is more than 99.5 µM.

Regarding `CCn1c(=O)c(N2CC[C@]3(CCNC3=O)C2)nc2ccccc21`, the IC50 was more than 99.5 µM.

`O=C(O)c1cc(Cl)ccc1S(=O)(=O)NC1CCC(N2CCCCC2=O)CC1` (stereo not given): the IC50 was more than 99.5 µM.

Regarding `Cc1ccc(C(=O)N[C@H](C(=O)Nc2cccc(CN)c2)c2ccc(OCc3ccccc3)cc2)s1`, the midpoint of inhibition, the IC50, lay at 60 µM.

In the case of `CS(=O)(=O)c1cncc(-c2cccc([C@H](NC(=O)OCc3ccccc3)C(=O)Nc3cccc(CN)c3)c2)c1`, 60.8 µM corresponded to half-maximal inhibition (IC50).

Compound `NCc1cccc(NC(=O)[C@]2(NC(=O)OCc3ccccc3)COc3cc(Br)ccc32)c1` yielded an IC50 of more than 99.5 µM.

In turn, `CCN1C[C@H]2C[C@@H]1CN2c1nc2ccccc2n(CC)c1=O` had an IC50 of more than 99.5 µM.

`Cc1cc(OCc2ccccc2)ccc1NS(=O)(=O)c1ccc(Cl)cc1C(=O)O` came in with an IC50 of more than 99.5 µM.

In the case of `CCn1c(=O)c(N2C[C@H]3COC[C@@]3(C)C2)nc2ccccc21`, the IC50 was more than 99.5 µM.

Consider `NCc1cccc(NC(=O)[C@H](NC(=O)OCc2ccccc2)c2cccc(C3=CCCOC3)c2)c1`, for which the IC50 was determined as 93.3 µM.

For `CC(C)[C@@H]1[C@H](C(=O)Nc2cccc(CN)c2)CCN1C(=O)OCc1ccccc1`, the IC50 was more than 99.5 µM.

Take `NCc1cccc(NC(=O)[C@H](NC(=O)C2CCCCC2)c2ccc(OCc3ccccc3)cc2)c1`: the IC50 is 22.3 µM and 20 µM.

Compound `Cn1ncc2cc(C(=O)N3CCC(NC(=O)[C@]4(C)CCC[C@H]4O)CC3)cc(O)c21` showed an IC50 of more than 99.5 µM.

Regarding `CCn1c(=O)c(N2CC[C@H](c3ccccc3)C2)nc2ccccc21`, the IC50 was more than 99.5 µM.

For the compound `CCOC(=O)c1cc(C(=O)N[C@H](C(=O)Nc2cccc(CN)c2)c2ccc(OCc3ccccc3)cc2)n(C)n1`, the IC50 was 23.7 µM and 23.1 µM.

`Cc1occ(C(F)(F)F)c1C(=O)N[C@H](C(=O)Nc1cccc(CN)c1)c1ccc(OCc2ccccc2)cc1` had an IC50 of 61 µM.

Compound `NCc1cccc(NC(=O)[C@H](NC(=O)[C@H]2CCOC2)c2ccc(OCc3ccccc3)cc2)c1` registered a concentration for half-maximal inhibition (IC50) of more than 99.5 µM.

`NCc1cccc(NC(=O)[C@H](NC(=O)c2ccccc2Cl)c2ccc(OCc3ccccc3)cc2)c1` had an IC50 of 33.1 µM.

In the case of `C[C@]1(C(=O)N[C@H](C(=O)Nc2cccc(CN)c2)c2ccc(OCc3ccccc3)cc2)COc2ccccc2O1`, inhibition was half-maximal at 17.2 µM (IC50).

`CCn1c(=O)c(N2CC[C@]3(CNC(=O)O3)C2)nc2ccccc21` gave an IC50 of more than 99.5 µM.

For the compound `CCn1c(=O)c(N2C[C@H]3CCS(=O)(=O)[C@H]3C2)nc2ccccc21`, the IC50 is more than 99.5 µM.

As to `NCc1cccc(NC(=O)[C@H](NC(=O)c2ccncc2)c2ccc(OCc3ccccc3)cc2)c1`, the IC50 was more than 99.5 µM.

`O=C(O)c1cc(Cl)ccc1S(=O)(=O)Nc1ccc(-c2cccc(F)c2)cc1` came in with an IC50 of more than 99.5 µM.

`CC(=O)Nc1cccc(-c2ccc(S(=O)(=O)Nc3ccc(Cl)cc3C(=O)O)cc2)c1` displayed an IC50 of more than 99.5 µM.

For `NCc1cccc(N(C(=O)CNC(=O)OCc2ccccc2)c2ccc(OCc3ccccc3)cc2)c1`, the IC50 is more than 99.5 µM.

`NCc1cccc(NC(=O)[C@H](NC(=O)OCc2ccccc2)c2ccc(CO)cc2)c1` registered an IC50 of more than 99.5 µM.

Turning to `NCc1cccc(NC(=O)[C@H](NS(=O)(=O)c2ccc(Oc3ccccc3Cl)cc2)c2ccc(OCc3ccccc3)cc2)c1`, the midpoint of inhibition, the IC50, lay at 65.4 µM.

`Cc1ccc([C@H]2[C@H](C)CN2C(=O)c2ccc(C(F)(F)CN)cc2)cc1` returned an IC50 of more than 99.5 µM.

For `O=C(O)c1ccc(F)c(F)c1NS(=O)(=O)c1ccc(Oc2ccccc2Cl)cc1`, the IC50 is more than 99.5 µM.

The compound `CCn1c(=O)c(N2C[C@H](C)C[C@H]2c2ccccc2)nc2ccccc21` registered an IC50 of more than 99.5 µM.

`CCn1c(=O)c(N2C[C@@H]3C[C@]3(CO)C2)nc2ccccc21` came in with an IC50 of more than 99.5 µM.

In turn, `CCn1c(=O)c(N2C[C@H](O)C3(CC3)C2)nc2ccccc21` came in with an IC50 of more than 99.5 µM.

As for `CCn1c(=O)c(N2C[C@]3(CO)C[C@H]2CO3)nc2ccccc21`, the half-inhibitory concentration (IC50) was more than 99.5 µM.

With `CCc1n[nH]cc1-c1cccc([C@H](NC(=O)OCc2ccccc2)C(=O)Nc2cccc(CN)c2)c1`, the IC50 is more than 99.5 µM.

For the compound `CCn1c(=O)c(N2C[C@@H]3[C@H](C2)[C@H]2CC[C@@H]3O2)nc2ccccc21`, the IC50 is more than 99.5 µM.

Consider `COc1ccccc1-c1ccc(S(=O)(=O)Nc2ccc(Cl)cc2C(=O)O)cc1`, for which the IC50 is 37.6 µM.

`NCc1cccc(NC(=O)[C@H]2[C@H]3CCC[C@H]3[C@@H]2NC(=O)OCc2ccccc2)c1`: the IC50 is more than 99.5 µM.

In turn, `CCn1c(=O)c(N2CCC[C@@H]2Cn2cncn2)nc2ccccc21` gave a half-inhibitory concentration (IC50) of more than 99.5 µM.

`O=C(O)c1c(F)cc(F)cc1NS(=O)(=O)c1ccc(Oc2ccccc2Cl)cc1` displayed an IC50 of more than 99.5 µM.

Regarding `CCn1c(=O)c(N2CC[C@H](c3nncs3)C2)nc2ccccc21`, the IC50 is more than 99.5 µM.

`NC[C@H]1C[C@@H](NC(=O)c2cc(Cl)ccc2NS(=O)(=O)c2ccc(Oc3ccccc3Cl)cc2)C1` showed an IC50 of more than 99.5 µM.

Consider `NCc1cccc(NC(=O)C[C@H](NC(=O)OCc2ccccc2)C2CCCCC2)c1`, for which the half-maximal inhibitory concentration (IC50) was 83.1 µM and 78.1 µM.

For the compound `NCc1cccc(NC(=O)[C@H](NC(=O)Cn2cccn2)c2ccc(OCc3ccccc3)cc2)c1`, the IC50 was more than 99.5 µM.

`C[C@]1(C(=O)N[C@H](C(=O)Nc2cccc(CN)c2)c2ccc(OCc3ccccc3)cc2)CCCO1` registered an IC50 of more than 99.5 µM.

For `CCn1c(=O)c(N2CC3(COC3)[C@](F)(CO)C2)nc2ccccc21`, the IC50 is more than 99.5 µM.

For `NCc1cccc(NC(=O)c2cc(Cl)ccc2NS(=O)(=O)c2ccc(Oc3ccccc3Cl)cc2)c1`, the IC50 is more than 99.5 µM.

The compound `Cc1cc(-c2cccc([C@H](NC(=O)OCc3ccccc3)C(=O)Nc3cccc(CN)c3)c2)[nH]n1` had an IC50 of more than 99.5 µM.

`CCn1c(=O)c(N2C[C@H]3C[C@H]2C(F)(F)C3)nc2ccccc21`: the IC50 was more than 99.5 µM.

Compound `CCn1c(=O)c(N2CCC[C@@H]2Cc2cccs2)nc2ccccc21` returned a concentration for half-maximal inhibition (IC50) of more than 99.5 µM.

The compound `NCc1cccc(NC(=O)C[C@H](NC(=O)OCc2ccccc2)c2ccc(Br)cc2)c1` registered an IC50 of 48.7 µM.

As to `CCC1CN(C(=O)c2cc(Cl)ccc2NS(=O)(=O)c2ccc(Oc3ccccc3Cl)cc2)C1`, the IC50 was more than 99.5 µM.

Source of the values: ChEMBL document CHEMBL5604062, “ASAP - ZIKV NS2B-NS3 protease fluorescence dose response” (2024).
